Assay results: patent publication US12077777B2, “Precursory regulatory cytotrophoblast cells and uses thereof” (Accelerated BioSciences Corp., priority 2019, dated 2024)
Values belong to the compound of their own block, whether it stands above or below them.

Key:
[1] = test system: PI3K/AKT signaling; assay: Gβ/PI3K/AKT/GSK3α/β pathway by blotting analysis in hTS cells; type: cell-based, human
Procedure: (§1) In cell culture, hTS cells were treated with bFGF and harvested at time as indicated and put into RIPA lysis solution (MILLIPORE®) supplemented with protease (Thermo Scientific) and phosphatase inhibitor (Cell Signaling Technology). After electrophoresis of 30 μg lysates on polyacrylamide gels, electroblotting onto PDVF membranes (MILLIPORE®) was performed. By blocking of 5% non-fat dry milk in PBS at room temperature (I hr), target proteins were incubated with primary antibodies. All membranes were incubated with chemiluminescent (MILLIPORE®) and imaging was captured by the CHEMIDOC® XRS system (BIO-RAD®). Antibodies used were listed in Key Resource Table. Data were analyzed by AlphaEaseFC (version 4.0.0).

[2] = test system: prCTBs; assay: Transwell invasion and migration assay, prCTBs; type: cell-based, human; details: dose- and time-dependent; 4×10^3 cells/ml; n=3
Procedure: […] To do this, add extracellular matrix (ECM) materials on top of the transwell membrane and then add cells on top of the ECM. For example, […]® is thawed and liquefied on ice, and then 30-50 μl of […]® is added to a 24-well transwell insert and solidified in a 37 C incubator for 15-30 minutes to form a thin gel layer. Cell solution is added on top of the […]® coating to simulate invasion through the extracellular matrix. The transwell cell migration assay measures the chemotactic capability of cells toward a chemo-attractant. The transwell cell invasion assay, however, measures both cell chemotaxis and the invasion of cells through extracellular matrix, a process that is commonly found in cancer metastasis or embryonic development. Using a pipette, very carefully add 600 μl of the desired chemo-attractant into the bottom of the lower chamber in a 24-well plate. Add the chemo-attractant without moving the transwell insert and avoid generating bubbles. Make sure the chemo-attractant liquid in the bottom well makes contact with the membrane in the upper well to form a chemotactic gradient. Incubation time is dependent on cell type and the chemo-attractant being used. Note: Further tests may be needed to determine the incubation period. […] The number of migrated cells can be counted by using hemocytometer or flow cytometer. […]

[3] = test system: hTSCs; assay: Transwell invasion and migration assay, hTSCs; type: cell-based, human; details: dose- and time-dependent; 4×10^3 cells/ml; n=3
[4] = test system: CD4; assay: IL-8 generated CD4(+) prCTBs, Western blot assay; type: cell-based, human; details: IL-8 30 ng/ml
Procedure: as §1, with “After” for “In cell culture, hTS cells were treated with bFGF and harvested at time as indicated and put into RIPA lysis solution (MILLIPORE®) supplemented with protease (Thermo Scientific) and phosphatase inhibitor (Cell Signaling Technology). After”

[5] = test system: CD56; assay: IL-8 induced CD56 via CXCR2/STAT3 signaling, Western blot assay; type: cell-based, human; details: IL-8 30 ng/ml
Procedure: as §1, with “After” for “In cell culture, hTS cells were treated with bFGF and harvested at time as indicated and put into RIPA lysis solution (MILLIPORE®) supplemented with protease (Thermo Scientific) and phosphatase inhibitor (Cell Signaling Technology). After”

[6] = test system: Foxp3; assay: IL-8 induced Foxp3 via CXCR2/STAT3 signaling, Western blot; type: cell-based, human; details: IL-8 30 ng/ml; for IL-8-induced Foxp3 in presence of inhibitor: n=3 cell lines
Procedure: as §1, with “After” for “In cell culture, hTS cells were treated with bFGF and harvested at time as indicated and put into RIPA lysis solution (MILLIPORE®) supplemented with protease (Thermo Scientific) and phosphatase inhibitor (Cell Signaling Technology). After”

[7] = test system: IL-6 and IL-8; assay: bFGF induction of IL-6 and IL-8; type: cell-based, human; details: bFGF 10 ng/ml; time-dependent; n=3 cell lines
Procedure: To explore how prCTBs produce cytokines IL-6 and IL-8, hTSCs were incubated with bFGF for 1-day mimicking the transient stay in the fallopian tube. Mechanistically, bFGF activated its receptor FGFR1 at cell membrane to induce PI3K/phosphorylated (p)AKT signaling. In turn, pAKT interacted and phosphorylated downstream pCREB1 (cAMP responsive element binding protein 1) to activate pCREB1 signaling. These molecular processes were verified by using FGFR 1 inhibitor PD166866, and specific shRNAs for PI3K and pAKT (FIGS. 7G-7J). In the nucleus, CREB1 targeted the genes to produce IL-6 in a time-dependent manner (FIG. 7K, left panel) and IL-8 (FIG. 7K, right panel) in a dose-dependent manner, confirmed by ELISA assay (FIG. 7C). These molecular processes occurred co-incidentally with EMT in time and space.

[8] = test system: STAT3, c-JUN, Fas ligand (FasL), Fas; assay: STAT3, c-JUN, FasL and Fas by immunoblotting assay; type: cell-based, human; details: bFGF 10 ng/ml
Procedure: as §1

[9] = molecular target: T1, FGFR1 (Homo sapiens, UniProt P11362); assay: bFGF activation of FGFR1 and downstream PI3K signal, Western blot assay; type: cell-based; details: bFGF 10 ng/ml
T1 construct: endogenous in cells; host or cells: human trophoblast stem (hTS) cells
T1 sequence (P11362 22-822): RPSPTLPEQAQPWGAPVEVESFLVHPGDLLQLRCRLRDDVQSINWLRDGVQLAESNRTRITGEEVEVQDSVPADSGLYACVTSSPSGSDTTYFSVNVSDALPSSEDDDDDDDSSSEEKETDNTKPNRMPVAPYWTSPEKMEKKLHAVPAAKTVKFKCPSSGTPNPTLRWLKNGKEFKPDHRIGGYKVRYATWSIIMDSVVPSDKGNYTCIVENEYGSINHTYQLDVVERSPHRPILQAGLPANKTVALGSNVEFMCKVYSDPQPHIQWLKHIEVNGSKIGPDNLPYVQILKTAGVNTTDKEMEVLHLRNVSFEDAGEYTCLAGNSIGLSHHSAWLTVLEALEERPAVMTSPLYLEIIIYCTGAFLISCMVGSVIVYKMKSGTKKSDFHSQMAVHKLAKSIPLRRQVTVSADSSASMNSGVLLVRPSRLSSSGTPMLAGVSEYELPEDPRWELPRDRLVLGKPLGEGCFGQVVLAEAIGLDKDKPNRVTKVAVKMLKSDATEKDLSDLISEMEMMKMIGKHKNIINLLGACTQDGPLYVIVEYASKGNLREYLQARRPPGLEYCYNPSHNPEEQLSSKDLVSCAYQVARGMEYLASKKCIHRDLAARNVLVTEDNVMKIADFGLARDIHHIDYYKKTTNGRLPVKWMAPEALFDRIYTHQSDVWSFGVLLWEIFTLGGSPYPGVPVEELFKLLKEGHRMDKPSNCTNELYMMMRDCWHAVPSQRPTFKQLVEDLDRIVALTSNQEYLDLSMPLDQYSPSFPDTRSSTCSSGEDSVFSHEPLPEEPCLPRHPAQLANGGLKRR
Procedure: as §1

[10] = test system: hTSCs; assay: bFGF-induced epithelial-mesenchymal transition markers, Western blot assay; type: cell-based, human; details: bFGF 10 ng/ml
Procedure: as §1

[11] = test system: hTS cells; assay: Insulin secretion by RIA in secretomic analysis; type: cell-based, human; details: hTS cells (1×10^6 cells), glucose 20 mM, gliclazide 10 μM, nifedipine 10 μM, n=3
Procedure: The hTS cell culture media (10 ml) were harvested at 80-90% confluence followed by centrifugation (3,000 rpm, 30 min, 4° C.). The supernatants were further concentrated to 1 ml by using 3 kDa VIVASPIN® concentrator (Sigma). The concentrated supernatant was further detected for TGF-β1, HLA-G, and PAI-1 by immunoblotting assay. IL-10 level was measured by OPTEIA® ELISA assay kit following the supplier's instructions (BD Pharmingen, San Diego). The range of detectable IL-10 concentration was between 2 and 2,000 pg/ml. An aliquot of 100 μl sample was measured in triplicate. Total protein of supernatant was measured by using Pierce BCA protein assay kit (THERMO […]®). […] Media were collected at different time (5, 10, 20, 30, 60 and 120 min), freeze dried by lyophilizer (VIRTIS®; Warminster), and rehydrated with sterile water (400 μl) for radioimmunoassay (RIA). C-peptide and insulin levels were determined by C-PEP II-RIA-CT (DIAsource ImmunoAssays S. A.) and Coat-A-Count insulin (Siemens Healthcare Diagnostics), respectively, in 5 assays.

[12] = test system: hTSCs; assay: RT-qPCR analysis of IL-6 / IL-8 treated hTSCs; type: cell-based, human; details: n=4; for CREB1 mRNA: IL-6 10 ng/ml or IL-8 30 ng/ml
Procedure: RNA was isolated from hTS cells in triplicate or quintuple samples using TRIZOL® reagent (INVITROGEN®) with DNAase I on-column digestion (Qiagen) according to manufacturer's protocol. Total RNA (500 ng) was used for reverse transcription with […] cDNA synthesis kit (BIO-RAD®). PCR carried out in duplicate using 1/40th of the cDNA per reaction and 400 nM forward and reverse primers. For miRNA stem-loop qPCR, we used single tube TAQMAN® miRNA assays as manufacturer's instruction (Applied Biosystems). All RT reactions, including no-template controls and RT minus controls, were carried out in a GENEAMP® PCR 9700 Thermocycler (Applied Biosystems). Comparative real-time PCR was performed in triplicate or quintuple, including no-template controls, using specific primers for miR-124 or RNU6B (Applied Biosystems). U6 snRNA (RNU6B; Applied Biosystems) served as an endogenous control. Relative expression was calculated using SDS2.2.2 software (Applied Biosystems) was used for comparative ΔCt analysis.

[13] = test system: β-hCG; assay: IL-6 induced β-hCG, Western blot assay; type: cell-based, human; details: IL-6 10 ng/ml, via GnRHR and IL-6R
Procedure: as §1, with “After” for “In cell culture, hTS cells were treated with bFGF and harvested at time as indicated and put into RIPA lysis solution (MILLIPORE®) supplemented with protease (Thermo Scientific) and phosphatase inhibitor (Cell Signaling Technology). After”

Compound: Cn1cc(C2=C(c3ccc(Cl)cc3Cl)C(=O)NC2=O)c2ccccc21 [SB216763]
- pMAFA expression in presence of inhibitor [1]: inhibited

Compound: MCP-1: monocyte chemoattractant protein-1
- movement (invasion and migration) of prCTBs [2]: significantly induced movement
- movement (invasion and migration) of hTSCs [3]: significantly induced movement

Compound: O=C(Nc1ccc([N+](=O)[O-])cc1O)Nc1ccccc1Br [SB225002]
- IL-8-induced CD4 in presence of inhibitor [4]: inhibited
- IL-8-induced CD56 in presence of inhibitor [5]: inhibited
- IL-8-induced Foxp3 in presence of inhibitor [6]: inhibited

Compound: bFGF: basic fibroblast growth factor
- IL-6 production [7]: induced
- IL-8 production [7]: induced
- Fas level [8]: downregulation
- Fas ligand (FasL) level [8]: upregulation
- STAT3 level [8]: upregulation
- c-JUN level [8]: upregulation
- activation of FGFR1 and downstream PI3K signal [9]: activated
- E-cadherin expression [10]: down-regulated
- TGF-β1 expression [10]: up-regulated
- vimentin expression [10]: up-regulated

Compound: CXCL2: chemokine (C-X-C motif) ligand 2
- movement (invasion and migration) of prCTBs [2]: significantly induced movement
- movement (invasion and migration) of hTSCs [3]: significantly induced movement

Compound: NC1(c2ccc(-c3nc4ccn5c(=O)[nH]nc5c4cc3-c3ccccc3)cc2)CCC1 [MK2206]
- Gβ-induced phosphorylation of AKT (ser473) and GSK3α/β (ser21/9) in presence of inhibitor [1]: inhibited

Compound: Cc1ccc(S(=O)(=O)NC(=O)NN2CC3CCCC3C2)cc1 (stereo not shown) [gliclazide]
- insulin secretion [11]: promoted insulin secretion

- conventional receptor IL-8R mRNA ([12]; IL-8 30 ng/ml): not
Compound: IL-8: interleukin 8
- generation of CD4(+) prCTBs [4]: generated CD4(+) prCTBs
- CD56 induction [5]: induced CD56
- CREB1 mRNA ([12]; hTSCs): upregulates
- CD56 mRNA ([12]; IL-8 30 ng/ml): upregulates
- Foxp3 induction [6]: induced Foxp3

Compound: IL-6: interleukin 6
- CREB1 mRNA ([12]; hTSCs): upregulated
- IL-6R mRNA ([12]; IL-6 10 ng/ml, hTSCs): upregulated
- β-hCG mRNA ([12]; IL-6 10 ng/ml, hTSCs): upregulated
- β-hCG induction [13]: induced β-hCG

- bFGF activation of FGFR1 and PI3K signal in presence of inhibitor [9]: inhibited
Compound: COc1cc(OC)cc(-c2cc3cnc(N)nc3nc2NC(=O)NC(C)(C)C)c1 [PD166866, reference compound]

Compound: O=[N+]([O-])c1ccc2c(c1)S(=O)(=O)C=C2 [Stattic]
- IL-8-induced CD4 in presence of inhibitor [4]: inhibited
- IL-8-induced CD56 in presence of inhibitor [5]: inhibited
- IL-8-induced Foxp3 in presence of inhibitor [6]: inhibited
